Data reported in US20240350669A1, “INHIBITION OF KYNURENINE SYNTHESIS AND/OR SIGNALING TO TREAT LEUKEMIA AND MYELODYSPLASIA” (THE TRUSTEES OF COLUMBIA UNIVERSITY IN THE CITY OF NEW YORK, priority 2022, published 2024).

Legend:
[1] = Systemic toxicity observation in WT mice on epacadostat diet; assay type: in vivo; settings: ad libitum diet 0.8 g/kg
Experimental: (§1) Epacadostat (AdooQ Cat #A15554)-treatment: for the WT C57BL/6J mice, treatment started at the same time than MLL/AF9 cells were transplanted. For the patient-derived AML cells (PDX) transplanted into NSG mice, treatment started 8 weeks after transplant, at the same time than Ara-C and during 3 weeks. Mice were supplied with ad libitum epacadostat-supplemented diet (Research Diets Inc.) at 800 mg/kg (low-dose) or 1.6 g/kg (high-dose). For the PDX transplanted into NSGS mice, treatment started 3 weeks after transplant, by daily gavage at 300 mg/kg (InvivoChem Cat #: V0942, dissolved in 10% DMSO, 40% PEG 300 and 50% NaCl 0.9%) for 2 weeks.

[2] = tested on: patient-derived AML cells; assay: Patient-derived AML xenograft (PDX) in NSGS mice, epacadostat daily gavage; assay type: in vivo, mouse; settings: daily gavage 300 mg/kg
Experimental: as §1
4-6 weeks old NSG (CDX model) or NSGS (PDX model) mice were pre-conditioned with sublethal (1.4 Gy) total-body irradiation. 24 h after, 1×10^6 OCI-AML3 or 2×10^5 human BM CD34^+ (healthy) or primary AML patient samples were injected i.v. Engraftment levels were monitored and mice were randomized after BM aspiration 3-4 weeks later and immunophenotyped by the presence of mCD45 (BioLegend Cat #103133, RRID: AB_10899570), hCD45 (BioLegend Cat #368512, RRID: AB_2566372), hCD33 (BioLegend Cat #303404, RRID: AB_314348), hCD34 (BioLegend Cat #343518, RRID: AB_1937203) cell populations. For the low-burden PDX model (kynurenine injections), mice were treated 1 week after transplant.
(§2) Quantification in serum from peripheral blood (mice) or BM plasma (patients) of Kyn and Trp was assessed by ELISA using independent kits (ImmunoSmol) as per manufacturer's instructions. The ratio between Kyn and Trp levels is shown. SAA3 in serum (murine SAA3 ELISA Kit Millipore) and SAA1 in patient BM plasma (Amyloid A1 DuoSet ELISA Kit (R&D) were assessed as per manufacturer's instructions.
Cell labelling was done by i.p. injection of mice with 50 mg/kg of freshly prepared 5-Ethynyl-2′-deoxyuridine-Edu-(Cayman Chemical Company Cat #20518). After 3-4 h, BM was harvested, and human cells were negatively selected by mouse cell depletion using mouse CD45 magnetic beads (Miltenyi). The human BM cells were then stained CD45 and CD33 to identify the leukemic blast. Cell cycle/proliferation analysis was performed using the Click-iT Plus EdU Flow Cytometry Assay Kit (Invitrogen, Cat #C10420) following manufacturers' instructions. Fixable viability dye (Biolegend) was used to discriminate the death population. Single color controls were used to set compensations and fluorescence minus one control were used to set gates. Analysis was performed with FlowJo software.

[3] = tested on: patient-derived AML cells; assay: Patient-derived AML xenograft in NSG mice, epacadostat chow and/or Ara-C; assay type: in vivo, mouse
Experimental: as §1
For the combination therapy (Epacadostat+chemotherapy) performed at the University of Pennsylvania, patient-derived AML cells were transplanted as previously reported (48). Briefly 6 weeks old NSG males were sublethally treated with busulfan (30 mg/kg) 24 h before transplant and 5×10^6 patient-derived AML cells were injected i.v. Engraftment was assessed, and mice were randomized at 7.5 weeks by BM aspirate as previously described. Randomized mice were treated with vehicle, cytosine arabinoside (Ara-C, 60 mg/kg/day×5 days i.p.), epacadostat chow (1.6 g/kg ad libitum) or both Ara-C and epacadostat chow for 3 weeks.

IDO1 [4] = assay: Circulating Kyn and Trp levels (ELISA) in WT mice on epacadostat diet; assay type: in vivo, mouse
Experimental: as §1, §2

IDO1 [5] = assay: Epacadostat in vitro: kynurenine secretion and cell cycle progression; assay type: cell-based
MLL/AF9 AML cells = assay: MLL/AF9 syngeneic leukemia model in non-irradiated WT mice; assay type: in vivo, mouse
Experimental: PTH bone-anabolic treatment: mice were injected intraperitoneally (i.p.) with PTH (Bachem) at 80 μg/kg/day in PBS. Injections started 1 week before MLL/AF9 injection and continued along 2-3 more weeks until mice were harvest.
SB224289-SB9-(TOCRIS Cat #1221) treatment: mice were injected intraperitoneally (i.p.) daily with SB9 (5 mg/kg in 0.9% NaCl) 1 week after leukemia injection and for the duration of the experiment. Assuming a 20 g body weight (BW) and a 2 ml total blood volume per mouse—as well as an even distribution of the drug-systemic concentration of SB9 should be approximately 50 μg/ml. Based on the MW of SB9 (557.09), the final concentration—at equal distribution—in blood should be 8.97521e-05 M (≈90 μM).
as §1
All leukemia models were introduced by intravenous (i.v.) injection and transplanted into non-irradiated secondary recipient experimental animals. BALB/c mice were used for the WEHI-3B leukemia model (0.5×10^6/cells/mouse) and C57BL/6J mice for MLL/AF9-dsRed (0.2×10^6/cells/mouse). Leukemia progression was assessed by fluorescence (MLL/AF9 dsRed) using the IVIS-Spectrum Optical Imaging System (Caliper, Perkin Elmer). Mice were shaved to reduce light attenuation.

[6] = day 22 after initiating therapy, Ara-C 60 mg/kg/day x 5 days, epacadostat chow 1.6 g/kg 3 weeks

Compound: NS(=O)(=O)NCCNc1nonc1C(=NO)Nc1ccc(F)c(Br)c1 [epacadostat]
- systemic toxicity [1]: did not show any obvious systemic toxicity
- G0-G1 and G2-M populations of leukemic blasts [2]: remained unchanged
- leukemic blasts apoptosis [2]: increased leukemic blasts apoptosis
- reduction in Kyn/Trp levels in blood ([2]; 12 days): ~20%
- reduction in AML BM burden ([2]; 12 days, versus vehicle): ~20%
- proliferation of leukemic blasts (hCD45+CD33+) ([2]; in vivo cell cycle): less proliferative
- leukemia burden in both the bone marrow and spleen ([3]; AML patient-derived xenograft models, summary statement): significantly decreases leukemia burden
- leukemic burden in BM [3, 6]: decreased leukemic burden
- leukemic burden in spleen [3, 6]: more pronounced effect in the spleen
- reduction in serum Kyn levels (IDO1 [4]; MLL/AF9-injected mice, diet 1.6 g/kg): 35%
- effect on the 1.5-fold-increase in systemic Kyn/Trp levels of MLL/AF9 leukemic mice (IDO1 [4]; MLL/AF9 leukemic mice, diet 0.8 g/kg): did not reduce
- reduction in basal circulating Kyn/Trp levels (IDO1 [4]; no leukemia, ad libitum diet 0.8 g/kg): 54%
- reduction in circulating kynurenine and tryptophan levels (IDO1 [4]; wild type mice, dose not stated): 41%
- cell cycle progression (IDO1 [5]): impaired
- kynurenine secretion (IDO1 [5]): abrogated
- survival (MLL/AF9 AML cells; AML-injected mice, dose not stated): increases in survival
- leukemia progression (MLL/AF9 AML cells; epacadostat diet 0.8 g/kg): tendency towards a slower leukemia progression
- survival (MLL/AF9 AML cells; epacadostat diet 0.8 g/kg): slight-yet significant-increase in survival
- AML burden (MLL/AF9 AML cells; epacadostat diet 1.6 g/kg): significant delay in AML burden
- survival (MLL/AF9 AML cells; epacadostat diet 1.6 g/kg, compared to the lower dose): significantly prolonged survival
